Like-named read-outs stand apart in the source and are kept apart here.
Experiments:
[1] = rabbits; doses up to 100 mg/kg body weight; cited from earlier work
[2] = mice; doses up to 1 g/kg body weight; cited from earlier work
[3] = tested on: Herpes Simplex Virus Type 2 (HSV-2); test: CPE inhibition assay in MRC-5 cells, HSV-2; type: cell-based
[4] = tested on: Vesticular Stomatitis Virus (VSV); type: cell-based; conditions: MRC-5; for Anti-viral activity (protection of CPE) / viral activity, VSV: vitamin B12 = hydroxocobalamin (HC)
[5] = tested on: Human Hepatitis B Virus (HBV); test: HBV DNA copies in HepG2.2.15 culture medium by Lightcycler real-time PCR; type: cell-based; conditions: for Antiviral effect on HBV (HBV DNA copies): HepG2.2.15, 9 days
Experimental: HepG2.2.15 cells, a cell line that was stably transfected with HBV genome, were cultured in RPMI-1640 with fetal bovine serum at either 2 or 4% final concentration and with no antibiotics. The cells were seeded in a 96-well plate at a density of 2×10^4 cells/well and grown overnight. […] Triplicate samples were measured for each concentration. The cells were incubated at 37° C. for 9 days. Drug/medium was changed daily. On day 9, the culture media containing released HBV virions were harvested and used to extract HBV DNA.
HBV DNA from drug-treated HepG2.2.15 cell culture media was extracted using QIAmp DNA mini kit—blood and body fluid spin column according to manufacturer's instructions. Briefly, 10 μl of QIAGEN proteinase K was added to 1.5 ml Eppendorf tube. 50 μl cell supernatant and 50 μl AL buffer were added to the tube. The samples were incubated at 56° C. water bath for 3 h. At the end of incubation, 50 μl ethanol was added to the sample. The mixture was transferred to a QIAamp spin column and centrifuged at 14000 rpm for 1 min. The filtrate was discarded. 50 μl Buffer AW1 was then added to the column and centrifuged at 14000 rpm for 1 min. Following washing and recentrifugation, DNA was eluted in 50 μl dH2O.
HBV DNA was detected by real-time PCR using Lightcycler assay. The reaction was performed in 20 μl, comprising the following: 6.4/4.8 μl dH2O, 2 μl 25 mM MgCl2, 1 μl 10 μM sense primer, 1 μl 10 μM antisense primer, 8/1.6 μl LightCycler Probe (fluorescein-labeled, 5 μM), 0.8/1.6 μl LightCycler Probe 2 (LC Red 640-labeled, 10 μM), 2 μl LC FastStart DNA Master Hyb Probes, 1 μl uracil DNA glycosylase.
PCR mix was aliquoted into glass capillaries and 5 μl DNA template was then added to the PCR mix. A range of HBV plasmid DNA (1×10^8, 1×10^7, 1×10^6, . . . , 1×10^2, 25 copies) was used as standards for quantitative analysis.
The antiviral effects of the test compounds were calculated using DNA copy numbers as an endpoint. Specifically, the antiviral activities were calculated based on the following formula: Antiviral effect=(Ccontrol−Ctest)/Ccontrol whereby the Ccontrol is the HBV DNA copies in the control wells (without drug); the Ctest is the HBV DNA copies in the test wells with a given concentration of a test compound.
The enhancing or antagonistic effect was analyzed mathematically using the median effect equation (Chou and Talalay, 1984) by computer software CalcuSyn (Biosoft, St. Louis).

ND4 mouse model = test: Clinical signs in the ND4 demyelinating transgenic mouse model; type: in vivo; conditions: ND4 mice; for mean clinical scores / clinical signs (FIG. 5): intraperitoneal, paclitaxel alone 20 mg/kg once a week, vitamin B12 10 mg/kg once a week, combination with paclitaxel 5 mg/kg three times per week
Excerpt: (§1) In this model, the severity of the clinical signs increased until a maximum around 6 months with animals dying around 8 to 9 months of age. Clinical signs assessed included general shaking, seizures, head jerk, hind limb and tail shiver, wobbly gait and limp tail. The scale of zero (absence) to four (constant and uncontrollable movements) was used for each of the clinical signs.
All treatments began when the mice reached 3 months of age at which time signs of demyelinating disease were evident. Treatment was stopped at time of sacrifice.
Treatment was started when the animals were 3 months of age and continued for 11 weeks. The animals were evaluated twice a week for clinical signs and the scores were averaged on a weekly basis. Refer to example 1 for more experimental details.
as §1, with “The” for “In this model, the”, “increase” for “increased”, “include” for “included”
Mice (4 animals per group) were treated with vitamin B12 (cyanocobalamin) alone at a dose of 15 mg/kg, weekly and in combination with P-16. P-16 was administered alone and in combination with vitamin B12 at a dose of 1 mg/kg, tri-weekly. All treatments began when the mice reached 3 months of age at which time signs of demyelinating disease were evident. Treatment was stopped at time of sacrifice.
The ND4 transgenic mice received one of the following treatments through intraperitoneal injections: 1) paclitaxel (TAXOL®) at a dose of 20 mg/kg once a week; 2) vitamin B12 at a dose of 10 mg/kg once a week and paclitaxel (TAXOL®) at a dose of 5 mg/kg three times per week; and 3) vitamin B12 at a dose of 10 mg/kg once a week. All treatments started when the mice reached 3 months of age, at which time signs of demyelinating disease were evident.

[6] = tested on: Mouse ascite astrocytoma cells; conditions: overnight, no treatment 0.8955
Experimental: Mouse ascite astrocytoma cells were seeded in a 96-well plate and grown to 60% confluence in standard growth conditions.
96® AQueous One Solution Cell Proliferation Assay was used as a colorimetric method for determining the number of viable cells in proliferations. […] 96® AQueous One Solution Reagent directly to culture wells, incubating for 1-4 hours and then recording absorbance at 490 nm with a 96 well plate reader. The quantity of formazan product as measured by the amount of 490 nm absorbance is known in the art to be directly proportional to the number of living cells in the culture.

GFAP [7] = test: GFAP in brain of EAE mice (immunohistochemistry, slot blot of homogenates); type: in vivo, mouse
Experimental: EAE mice were treated as described previously in Example 2. After the various treatments, the mice were sacrificed and brain sections removed for GFAP staining and quantitation. The brain region of hippocampus, adjacent to the dentate gyrus was fixed in formalin, paraffin-embedded and sectioned at 5 μm. Immunohistochemistry with anti-GFAP antibody was used to stain for GFAP.
In addition, quantification of GFAP within the brains of normal, EAE untreated and EAE treated mice was carried out to provide a more precise level of protein expression. Whole brain homogenates were assayed for GFAP by slot blot. Brains were homogenized in a buffer containing 50 mM Tris-HCl pH 7.6, 0.5 mM DTT, 1 mM EDTA, and 0.43 mM PMSF. The homogenate was centrifuged at 11000 rpm for 30 min at 4° C. The pellet was isolated and resuspended in a buffer containing 10 mM sodium phosphate pH 7.5, 2 mM DTT, 6 mM urea and 1 mM EDTA. Samples were loaded onto the slot blot apparatus (BioDot, Biorad) under vacuum. The blots were reacted with anti-GFAP antibodies and then a secondary antibody. The blots were developed and the relative amounts of each band quantified.

GFAP [8] = test: GFAP in brain of ND4 mice (immunohistochemistry, slot blot of homogenates); type: in vivo, mouse; conditions: Vitamin B12 15 mg/kg, Normal 1.0, untreated ND4 4.4
Excerpt: After the various treatments, the mice were sacrificed and brain sections removed for GFAP staining and quantitation. The brain region of hippocampus, adjacent to the dentate gyrus was fixed in formalin, paraffin-embedded and sectioned at 5 μm. Immunohistochemistry with anti-GFAP antibody was used to stain for GFAP. Glial fibrillary acidic protein was a protein expressed by astrocytes (particularly reactive astrocytes) and was used as a marker for these cells.
In addition, quantification of GFAP within the brains of normal, ND4 untreated and ND4 treated mice was carried out to provide a more precise level of protein expression. Whole brain homogenates were assayed for GFAP by slot blot. Brains were homogenized in a buffer containing 50 mM Tris-HCl pH 7.6, 0.5 mM DTT, 1 mM EDTA, and 0.43 mM PMSF. The homogenate was centrifuged at 11000 rpm for 30 min at 4° C. The pellet was isolated and resuspended in a buffer containing 10 mM sodium phosphate pH 7.5, 2 mM DTT, 6 mM urea and 1 mM EDTA. Samples were loaded onto the slot blot apparatus (BioDot, Biorad) under vacuum. The blots were reacted with anti-GFAP antibodies and then a secondary antibody. The blots were developed and the relative amounts of each band quantified.

[9] = Toxicity in the applicant's animal studies; type: in vivo; conditions: concentrations of 15 mg/kg of vitamin B12 in mice
[10] = HC 1 μg/ml, fraction (ODTest−OD0)/(ODControl−OD0)
[11] = Vitamin B12 (methylcobalamin) 25 μg/ml

C/C1=C2/[N-][C@H]([C@H](CC(N)=O)[C@@]2(C)CCC(=O)NC[C@@H](C)OP(=O)([O-])O[C@H]2[C@@H](O)[C@@H](n3cnc4cc(C)c(C)cc43)O[C@@H]2CO)[C@]2(C)N=C(/C(C)=C3N=C(/C=C4N=C1[C@@H](CCC(N)=O)C\4(C)C)[C@@H](CCC(N)=O)[C@]\3(C)CC(N)=O)[C@@H](CCC(N)=O)[C@]2(C)CC(N)=O.[Co+3].[OH-] [HC, hydroxocobalamin]
acute toxicity [1]: no toxicities were observed
acute toxicity [2]: no toxicities were observed
Antiviral effect on HSV-2 (CPE inhibition) [3, 10]: 0.014
Antiviral effect on HSV-2 (CPE inhibition) ([3]; HC 10 μg/ml, fraction): 0.032
Antiviral effect on HSV-2 (CPE inhibition) ([3]; HC 100 μg/ml, fraction): 0.056
Antiviral effect on HSV-2 (CPE inhibition) ([3]; HC 500 μg/ml, fraction): 0.166
Antiviral effect on HSV-2 (CPE inhibition) ([3]; HC 1000 μg/ml, fraction): 0.210
Antiviral effect on VSV (CPE inhibition) [4, 10]: ≤ 0.001
Antiviral effect on VSV (CPE inhibition) ([4]; HC 10 μg/ml, fraction): ≤ 0.001
Antiviral effect on VSV (CPE inhibition) ([4]; HC 100 μg/ml, fraction): 0.039
Antiviral effect on VSV (CPE inhibition) ([4]; HC 500 μg/ml, fraction): ≤ 0.001
Antiviral effect on VSV (CPE inhibition) ([4]; HC 1000 μg/ml, fraction): 0.002
Antiviral effect on HBV (HBV DNA copies) ([5]; HC 1 μg/ml, fraction (Ccontrol−Ctest)/Ccontrol): 0.001
Antiviral effect on HBV (HBV DNA copies) ([5]; HC 10 μg/ml, fraction): 0.001
Antiviral effect on HBV (HBV DNA copies) ([5]; HC 100 μg/ml, fraction): 0.001
Antiviral effect on HBV (HBV DNA copies) ([5]; HC 500 μg/ml, fraction): 0.112

CC(=O)O[C@H]1C(=O)[C@@]2(C)[C@H]([C@H](OC(=O)c3ccccc3)[C@]3(O)C[C@H](OC(=O)[C@H](O)[C@@H](NC(=O)c4ccccc4)c4ccccc4)C(C)=C1C3(C)C)[C@]1(OC(C)=O)CO[C@@H]1C[C@@H]2O [paclitaxel]
mean clinical scores / clinical signs (FIG. 5) (ND4 mouse model): significant attenuation of mean clinical scores

C/C1=C2/[N-][C@H]([C@H](CC(N)=O)[C@@]2(C)CCC(=O)NC[C@H](C)OP(=O)([O-])O[C@H]2[C@@H](O)[C@@H](n3cnc4cc(C)c(C)cc43)O[C@@H]2CO)[C@]2(C)N=C(/C(C)=C3N=C(/C=C4N=C1[C@@H](CCC(N)=O)C\4(C)C)[C@@H](CCC(N)=O)[C@]\3(C)CC(N)=O)[C@@H](CCC(N)=O)[C@]2(C)CC(N)=O.[CH3-].[Co+3] [vitamin B12 (methylcobalamin), methylcobalamin]
Measure of Proliferative Activity (Absorbance at 490 nm) [6, 11]: decrease in proliferative activity

CSTMMSRSHKTRSHHV (Synthetically generated peptide) [P-16]
clinical signs of MS (FIG. 3) (ND4 mouse model; P-16 1 mg/kg tri-weekly, vitamin B12 (cyanocobalamin) 15 mg/kg weekly): attenuation of clinical signs

cyanocobalamin [Vitamin B12]
Relative Amount of GFAP (+/−SD) (GFAP [7]; EAE brain homogenates, Vitamin B12 15 mg/kg, Normal 1.0, untreated EAE 4.2): 4.2 +/− 0.2
levels of activated astrocytes and levels of GFAP (GFAP [7]; EAE mice treated as in Example 2): not effective in decreasing the levels of GFAP
Measure of Proliferative Activity (Absorbance at 490 nm) [6, 11]: 0.2985
Relative Amount of GFAP (+/−SD) (GFAP [8]): 2.8 +/− 0.1
Anti-viral activity (protection of CPE) / viral activity, VSV [4]: significantly increased
viral activity (HBV) ([5]; HepG2.2.15, vitamin B12 = hydroxocobalamin (HC)): not
toxicity in animals [9]: no toxicity has been found
mean clinical scores / clinical signs (FIG. 5) (ND4 mouse model): significant attenuation of mean clinical scores
clinical signs of MS (FIG. 1) (ND4 mouse model; vitamin B12 (cyanocobalamin) 15 mg/kg weekly, interferon-beta 1a 5000 IU tri-weekly, from 3 months of age): attenuation of clinical signs

interferon-alpha
Antiviral effect on HSV-2 (CPE inhibition) ([3]; interferon 5 IU/ml, fraction): 0.093
Antiviral effect on HSV-2 (CPE inhibition) ([3]; interferon 10 IU/ml, fraction): 0.139
Antiviral effect on HSV-2 (CPE inhibition) ([3]; interferon 50 IU/ml, fraction): 0.218
Antiviral effect on HSV-2 (CPE inhibition) ([3]; interferon 100 IU/ml, fraction): 0.282
Antiviral effect on HSV-2 (CPE inhibition) ([3]; interferon 500 IU/ml, fraction): 0.271
Anti-viral activity (protection of CPE) / viral activity, VSV [4]: significantly increased
Antiviral effect on VSV (CPE inhibition) ([4]; interferon 5 IU/ml, fraction): 0.296
Antiviral effect on VSV (CPE inhibition) ([4]; interferon 10 IU/ml, fraction): 0.387
Antiviral effect on VSV (CPE inhibition) ([4]; interferon 50 IU/ml, fraction): 0.950
Antiviral effect on VSV (CPE inhibition) ([4]; interferon 100 IU/ml, fraction): 0.996
Antiviral effect on VSV (CPE inhibition) ([4]; interferon 500 IU/ml, fraction): 0.942

B1: Mouse Interferon-beta: mouse interferon-beta used on mouse astrocytoma cells (protein, UniProt P01575 22-182, looked up)
Interferon beta: INYKQLQLQERTNIRKCQELLEQLNGKINLTYRADFKIPMEMTEKMQKSYTAFAIQEMLQNVFLVFRNNFSSTGWNETIVVRLLDELHQQTVFLKTVLEEKQEERLTWEMSSTALHLKSYYWRVQRYLKLMKYNSYAWMVVRAEIFRNFLIIRRLTRNFQN
Measure of Proliferative Activity (Absorbance at 490 nm) ([6]; Mouse Interferon-beta 500 IU/ml): 0.3855
Measure of Proliferative Activity (Absorbance at 490 nm) ([6]; Mouse Interferon-beta 500 IU/ml, listed as mice interferon-beta): decrease in proliferative activity

— patent US6894033B2, “Combination therapies using vitamin B12 and therapeutic agents for treatment of viral, proliferative and inflammatory diseases” (Transition Therapeutics Inc., priority 2001, dated 2005)
